pKd: −log10 of the molar value.
Target: 2G12
Experiment: BioLayer Interferometry (BLI) of 2G12 binding to surface-immobilized synthetic glycopeptide
Conditions: Table 6; evaluated by BLI, material prepared synthetically
Procedure: Biotinylation of 10F2 glycopeptide and determination of 2G12 binding by BLI (BioLayer Interferometry): 200 μg 10F2 glycopeptide in 5.5 μL water was treated with […] of 50 mM TCEP.HCl/1M Tris-HCl buffer, pH 7.8, under argon, using the same inert gas setup employed in the click procedure. After 4.5 h, the reaction mixture was injected into HPLC (Waters Symmetry, 300 C4, 5 μm, 4.6×250 mm, 1 mL/min, 2-42% over 60 min, retention time 46.8 min).
The 2G12 binding of the resulting biotinylated glycopeptide 3 was determined using a BLItz instrument (Fortebio). Biotin-10F2 was loaded (120 sec) onto a streptavidin biosensor as a 500 nM solution in Buffer 1 (20 mM Tris pH 7.5, 150 mM NaCl, 2 mM MgSO4, 0.20 mg/mL BSA, 0.02% Tween-20). The sensor was washed with Buffer 1 for 60 sec, after which time the net response due to loading was observed as 0.2 nm. The sensor was then equilibrated with Buffer 2 (20 mM Tris pH 7.5, 150 mM NaCl, 2 mM MgSO4, 2.0 mg/mL BSA, 0.1% v/v Tween-20) for 90 sec. 2G12 (prepared in Buffer 2) was associated at several concentrations (0.5, 1, 2, 4, 8, 16, 32 nM, in random order) for 600 sec, followed by dissociation into blank Buffer 2 for 600 sec. […]

CC[C@H](C)[C@H](NC(=O)[C@@H](NC(=O)[C@@H](NC(=O)[C@H](Cc1c[nH]cn1)NC(=O)[C@H](CC(N)=O)NC(=O)[C@H](CC(=O)O)NC(=O)[C@H](CCc1cn(C2CCC(OC3O[C@H](CO[C@H]4O[C@H](CO[C@H]5O[C@H](CO)[C@@H](O)[C@H](O)[C@@H]5O[C@H]5O[C@H](CO)[C@@H](O)[C@H](O)[C@@H]5O)[C@@H](O)[C@H](O[C@H]5O[C@H](CO)[C@@H](O)[C@H](O)[C@@H]5O[C@H]5O[C@H](CO)[C@@H](O)[C@H](O)[C@@H]5O)[C@@H]4O)[C@@H](O)[C@H](O[C@H]4O[C@H](CO)[C@@H](O)[C@H](O)[C@@H]4O[C@H]4O[C@H](CO)[C@@H](O)[C@H](O)[C@@H]4O[C@H]4O[C@H](CO)[C@@H](O)[C@H](O)[C@@H]4O)[C@@H]3O)CC2)nn1)NC(=O)[C@@H](NC(=O)[C@H](CCCCN)NC(=O)[C@H](CCC(=O)O)NC(=O)[C@H](CCCNC(=N)N)NC(=O)[C@H](CCCCN)NC(=O)[C@H](CO)NC(=O)[C@H](CC(N)=O)NC(=O)[C@@H](NC(=O)[C@H](CCCCN)NC(=O)[C@@H](NC(=O)[C@H](C)NC(=O)[C@H](CCc1cn(C2CCC(OC3O[C@H](CO[C@H]4O[C@H](CO[C@H]5O[C@H](CO)[C@@H](O)[C@H](O)[C@@H]5O[C@H]5O[C@H](CO)[C@@H](O)[C@H](O)[C@@H]5O)[C@@H](O)[C@H](O[C@H]5O[C@H](CO)[C@@H](O)[C@H](O)[C@@H]5O[C@H]5O[C@H](CO)[C@@H](O)[C@H](O)[C@@H]5O)[C@@H]4O)[C@@H](O)[C@H](O[C@H]4O[C@H](CO)[C@@H](O)[C@H](O)[C@@H]4O[C@H]4O[C@H](CO)[C@@H](O)[C@H](O)[C@@H]4O[C@H]4O[C@H](CO)[C@@H](O)[C@H](O)[C@@H]4O)[C@@H]3O)CC2)nn1)NC=O)[C@@H](C)O)[C@@H](C)O)[C@@H](C)O)C(C)C)[C@@H](C)O)C(=O)N[C@@H](CCc1cn(C2CCC(OC3O[C@H](CO[C@H]4O[C@H](CO[C@H]5O[C@H](CO)[C@@H](O)[C@H](O)[C@@H]5O[C@H]5O[C@H](CO)[C@@H](O)[C@H](O)[C@@H]5O)[C@@H](O)[C@H](O[C@H]5O[C@H](CO)[C@@H](O)[C@H](O)[C@@H]5O[C@H]5O[C@H](CO)[C@@H](O)[C@H](O)[C@@H]5O)[C@@H]4O)[C@@H](O)[C@H](O[C@H]4O[C@H](CO)[C@@H](O)[C@H](O)[C@@H]4O[C@H]4O[C@H](CO)[C@@H](O)[C@H](O)[C@@H]4O[C@H]4O[C@H](CO)[C@@H](O)[C@H](O)[C@@H]4O)[C@@H]3O)CC2)nn1)C(=O)N[C@@H](CCCNC(=N)N)C(=O)N[C@@H](CO)C(=O)N[C@H](C(=O)N1CCC[C@H]1C(=O)N[C@@H](Cc1c[nH]c2ccccc12)C(=O)N[C@@H](Cc1ccc(O)cc1)C(=O)N[C@H](C(=O)N[C@@H](Cc1ccc(O)cc1)C(=O)N[C@@H](CCCNC(=N)N)C(=O)N[C@@H](Cc1c[nH]c2ccccc12)C(=O)N[C@@H](CC(C)C)C(=O)N1CCC[C@H]1C(=O)N[C@@H](CC(N)=O)C(=O)NCC(=O)N[C@@H](CO)C(=O)NCC(=O)N[C@@H](CO)C(=O)NCC(=O)N[C@@H](CS)C(=O)N[C@@H](C)C(=O)O)[C@@H](C)O)[C@@H](C)CC (stereo partly shown) [Clone 10V1-C7S, XATKTNSKREKTXDNHVTIXRSIPWYTYRWLPN]
pKd: 8.25

— US11345912B2, “Directed evolution of multivalent glycopeptides that tightly bind to target proteins” (Brandeis University, priority 2013, dated 2022)
